Values joined by “and” are separate entries in the source; they are usually repeats but may differ in a detail not shown here. Equal entries are not always repeated. Inconclusive results and toxic doses are left out.
Tested on: BDF1 mice, P388 leukemia ip, median survival T/C
Test: NCI In Vivo Anticancer Drug Screen. Data for tumor model P388 Leukemia (intraperitoneal) in B6D2F1 (BDF1) mice
Conditions: endpoint: median survival time, higher = longer survival
In short: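 Survival ratio, drug arm over vehicle arm, in mice with a transplanted tumour.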

[1] = dose: 25.0 mg/kg/injection, schedule: Q04DX003 (ip), vehicle: saline with Tween-80
[2] = dose: 6.25 mg/kg/injection, schedule: Q01DX009 (ip), vehicle: saline
[3] = dose: 12.5 mg/kg/injection, schedule: Q04DX003 (ip), vehicle: saline
[4] = dose: 25.0 mg/kg/injection, schedule: Q04DX003 (ip), vehicle: saline
[5] = dose: 100.0 mg/kg/injection, schedule: Q04DX003 (ip), vehicle: Klucel (hydroxypropylcellulose) (HPC)
[6] = dose: 200.0 mg/kg/injection, schedule: Q04DX003 (ip), vehicle: Klucel (hydroxypropylcellulose) (HPC)
[7] = dose: 400.0 mg/kg/injection, schedule: Q04DX003 (ip), vehicle: Klucel (hydroxypropylcellulose) (HPC)
[8] = dose: 100.0 mg/kg/injection, schedule: Q04DX003 (ip), vehicle: saline with Tween-80
[9] = dose: 200.0 mg/kg/injection, schedule: Q04DX003 (ip), vehicle: saline with Tween-80
[10] = dose: 400.0 mg/kg/injection, schedule: Q04DX003 (ip), vehicle: saline with Tween-80
[11] = dose: 100.0 mg/kg/injection, schedule: Q04DX003 (ip), vehicle: saline
[12] = dose: 50.0 mg/kg/injection, schedule: Q01DX009 (ip), vehicle: saline with Tween-80
[13] = dose: 100.0 mg/kg/injection, schedule: Q01DX009 (ip), vehicle: saline with Tween-80
[14] = dose: 200.0 mg/kg/injection, schedule: Q01DX009 (ip), vehicle: saline with Tween-80
[15] = dose: 200.0 mg/kg/injection, schedule: Q01DX009 (ip), vehicle: Klucel (hydroxypropylcellulose) (HPC)

For `O=C(NCC(S)c1ccc(Cl)cc1)C(F)(F)F` (configuration not stated), the T/C (dose: 6.25 mg/kg/injection, schedule: Q04DX003 (ip), vehicle: saline with Tween-80) was 100 % of control, the T/C (dose: 12.5 mg/kg/injection, schedule: Q04DX003 (ip), vehicle: saline with Tween-80) was 100 % of control and the T/C [1] was 118 % of control.
In the case of `C[N+]1=C2CCCC2=C(N)CC1`, the T/C [2] is reported as 110 % of control, the T/C (dose: 12.5 mg/kg/injection, schedule: Q01DX009 (ip), vehicle: saline) is reported as 115 % of control and the T/C [3] is reported as 95 % of control. For the same compound, the T/C (dose: 25.0 mg/kg/injection, schedule: Q01DX009 (ip), vehicle: saline) was 100 % of control and the T/C [4] was 100 % of control.
In the case of `CC1(C)CCCC(Cl)(C(Cl)c2ccccc2)C1=O` (configuration not stated), the T/C (dose: 75.0 mg/kg/injection, schedule: Q01DX001 (ip), vehicle: other) is reported as 100 % of control, the T/C (dose: 150.0 mg/kg/injection, schedule: Q01DX001 (ip), vehicle: other) is reported as 95 % of control and the T/C (dose: 300.0 mg/kg/injection, schedule: Q01DX001 (ip), vehicle: other) is reported as 95 % of control.
In the case of `C/C=C(/Cl)c1c(C)cc(C)c(CC(=O)O)c1C`, the T/C [5] is reported as 87 % of control, the T/C [6] is reported as 95 % of control and the T/C [7] is reported as 95 % of control.
For `CC(C)(C)Cc1cc(O)c2c(c1O)C(=O)c1ccccc1C2=O`, the T/C [1] was 100 % of control, the T/C (dose: 50.0 mg/kg/injection, schedule: Q04DX003 (ip), vehicle: saline with Tween-80) was 102 % of control and the T/C [8] was 95 % of control.
In the case of `CCOC(=O)C(Br)c1cccc(OC)c1` (configuration not stated), the T/C [8] is reported as 100 % of control, the T/C [9] is reported as 100 % of control and the T/C [10] is reported as 110 % of control.
With `NC(CCl)=NC1CCCCC1` the T/C [3] was 102 % of control, the T/C (dose: 22.0 mg/kg/injection, schedule: Q04DX003 (ip), vehicle: saline) was 121 % of control and the T/C [4] was 117 % of control. For the same compound, the T/C (dose: 75.0 mg/kg/injection, schedule: Q04DX003 (ip), vehicle: saline) was 96 % of control and the T/C [11] was 88 % of control.
`O=C1N=C2C=CC=CN2C(=O)C1Cc1ccccc1` (configuration not stated) was tested, and the T/C [8] was 96 % of control, the T/C [9] was 100 % of control and the T/C [10] was 104 % of control.
`N#CC1C=Cc2ccccc2N1C(=O)Oc1ccccc1` (configuration not stated) was tested, and the T/C [12] was 110 % of control, the T/C (dose: 100.0 mg/kg/injection, schedule: Q01DX001 (ip), vehicle: other) was 100 % of control and the T/C [13] was 100 % of control. For the same compound, the T/C [8] was 95 % of control, the T/C (dose: 200.0 mg/kg/injection, schedule: Q01DX001 (ip), vehicle: other) was 109 % of control and the T/C [14] was 110 % of control. The T/C [9] was 100 % of control, the T/C (dose: 400.0 mg/kg/injection, schedule: Q01DX001 (ip), vehicle: other) was 90 % of control and the T/C [10] was 113 % of control.
With `ClCc1ccc(CCl)cc1` the T/C (dose: 7.03 mg/kg/injection, schedule: Q01DX009 (ip), vehicle: Klucel (hydroxypropylcellulose) (HPC)) was 110 % of control.
With `Oc1ccccc1C=NC1CCCCC1.Oc1ccccc1C=NC1CCCCC1.[Ni+2]` the T/C (dose: 50.0 mg/kg/injection, schedule: Q04DX003 (ip), vehicle: saline sonified) was 109 % of control, the T/C (dose: 100.0 mg/kg/injection, schedule: Q04DX003 (ip), vehicle: saline sonified) was 109 % of control and the T/C (dose: 200.0 mg/kg/injection, schedule: Q04DX003 (ip), vehicle: saline sonified) was 100 % of control.
For `C=Cn1ccnc1C.C=Cn1ccnc1C.CC(=O)CC(C)=O.CC(=O)CC(C)=O.[Ni]`, the T/C (dose: 12.5 mg/kg/injection, schedule: Q04DX002 (ip), vehicle: saline) was 119 % of control, the T/C (dose: 25.0 mg/kg/injection, schedule: Q04DX002 (ip), vehicle: saline) was 117 % of control and the T/C (dose: 50.0 mg/kg/injection, schedule: Q04DX002 (ip), vehicle: saline) was 112 % of control.
With `CC(C(=O)c1ccc(Br)cc1)C(Br)c1ccccc1` (configuration not stated) the T/C [12] was 90 % of control, the T/C [13] was 113 % of control and the T/C [11] was 88 % of control. For the same compound, the T/C [14] was 88 % of control, the T/C (dose: 200.0 mg/kg/injection, schedule: Q04DX003 (ip), vehicle: saline) was 99 % of control and the T/C (dose: 400.0 mg/kg/injection, schedule: Q01DX009 (ip), vehicle: saline with Tween-80) was 97 % of control. The T/C (dose: 400.0 mg/kg/injection, schedule: Q04DX003 (ip), vehicle: saline) was 91 % of control.
`CCCCCCCN1C=CCC(S(=O)(=O)N2CCOCC2)=C1` was tested, and the T/C [12] was 109 % of control, the T/C [13] was 99 % of control and the T/C [14] was 109 % of control.
In the case of `Oc1ccc(Br)c2cccnc12`, the T/C (dose: 25.0 mg/kg/injection, schedule: Q01DX009 (ip), vehicle: Klucel (hydroxypropylcellulose) (HPC)) is reported as 91 % of control, the T/C (dose: 50.0 mg/kg/injection, schedule: Q01DX009 (ip), vehicle: Klucel (hydroxypropylcellulose) (HPC)) is reported as 111 % of control and the T/C (dose: 100.0 mg/kg/injection, schedule: Q01DX009 (ip), vehicle: Klucel (hydroxypropylcellulose) (HPC)) is reported as 98 % of control. The T/C [15] was 102 % of control and the T/C (dose: 200.0 mg/kg/injection, schedule: Q01DX010 (ip), vehicle: saline) was 100 % of control.
In the case of `CC(C)SC(=O)C[Si](C)(C)C`, the T/C [8] is reported as 166 % of control and the T/C [9] is reported as 166 % of control.
With `CCCCCCCCCCCC(=O)CC(SCC)c1ccccc1` (configuration not stated) the T/C [12] was 96 % of control, the T/C [13] was 87 % of control and the T/C [14] was 89 % of control.
`Cc1cc(C)cc(CCc2cc(C)cc(C)c2)c1` was tested, and the T/C [5] was 100 % of control, the T/C [15] was 109 % of control and the T/C [6] was 90 % of control. For the same compound, the T/C (dose: 400.0 mg/kg/injection, schedule: Q01DX009 (ip), vehicle: Klucel (hydroxypropylcellulose) (HPC)) was 100 % of control and the T/C [7] was 95 % of control.
For `CCOC1=C(N2CC2)C(=O)C(OCC)=C(N2CC2)C1=O`, the T/C (dose: 0.07 mg/kg/injection, schedule: Q01DX009 (ip), vehicle: saline with Tween-80) was 95 % of control, the T/C (dose: 0.25 mg/kg/injection, schedule: Q01DX009 (ip), vehicle: saline) was 165 % of control and the T/C (dose: 0.25 mg/kg/injection, schedule: Q04DX003 (ip), vehicle: saline) was 109 % of control. The T/C (dose: 0.3 mg/kg/injection, schedule: Q01DX009 (ip), vehicle: saline with Tween-80) was 122 % of control, the T/C (dose: 0.5 mg/kg/injection, schedule: Q01DX009 (ip), vehicle: saline) was 152 % of control and 190 % of control and the T/C (dose: 0.5 mg/kg/injection, schedule: Q04DX003 (ip), vehicle: saline) was 154 % of control. For the same compound, the T/C (dose: 0.6 mg/kg/injection, schedule: Q01DX009 (ip), vehicle: saline with Tween-80) was 153 % of control, the T/C (dose: 0.63 mg/kg/injection, schedule: Q04DX003 (ip), vehicle: saline) was 122 % of control and the T/C (dose: 1.0 mg/kg/injection, schedule: Q01DX009 (ip), vehicle: saline) was 245 % of control and 195 % of control. The T/C (dose: 1.0 mg/kg/injection, schedule: Q04DX003 (ip), vehicle: saline) was 200 % of control, the T/C (dose: 2.0 mg/kg/injection, schedule: Q01DX009 (ip), vehicle: saline) was 242 % of control and 105 % of control and the T/C (dose: 2.5 mg/kg/injection, schedule: Q04DX003 (ip), vehicle: saline) was 172 % of control. For the same compound, the T/C (dose: 4.0 mg/kg/injection, schedule: Q01DX009 (ip), vehicle: saline) was 114 % of control.
For `O=CN(O)CC(=O)O.[Ni]`, the T/C (dose: 1.56 mg/kg/injection, schedule: Q04DX003 (ip), vehicle: saline) was 90 % of control, the T/C (dose: 2.3 mg/kg/injection, schedule: Q01DX001 (ip), vehicle: saline) was 105 % of control and the T/C (dose: 3.12 mg/kg/injection, schedule: Q01DX009 (ip), vehicle: saline) was 120 % of control. The T/C (dose: 3.12 mg/kg/injection, schedule: Q04DX003 (ip), vehicle: saline) was 109 % of control, the T/C [2] was 115 % of control and the T/C (dose: 6.25 mg/kg/injection, schedule: Q04DX003 (ip), vehicle: saline) was 109 % of control. For the same compound, the T/C (dose: 9.2 mg/kg/injection, schedule: Q01DX001 (ip), vehicle: saline) was 95 % of control, the T/C (dose: 9.2 mg/kg/injection, schedule: Q04DX003 (ip), vehicle: saline) was 100 % of control and the T/C (dose: 13.0 mg/kg/injection, schedule: Q01DX001 (ip), vehicle: saline) was 113 % of control. For the same compound, the T/C (dose: 13.0 mg/kg/injection, schedule: Q04DX003 (ip), vehicle: saline) was 109 % of control, the T/C (dose: 14.0 mg/kg/injection, schedule: Q04DX003 (ip), vehicle: saline) was 109 % of control and the T/C (dose: 20.0 mg/kg/injection, schedule: Q01DX001 (ip), vehicle: saline) was 113 % of control. For the same compound, the T/C (dose: 21.0 mg/kg/injection, schedule: Q04DX003 (ip), vehicle: saline) was 118 % of control, the T/C (dose: 30.0 mg/kg/injection, schedule: Q01DX001 (ip), vehicle: saline) was 113 % of control and the T/C (dose: 30.0 mg/kg/injection, schedule: Q04DX003 (ip), vehicle: saline) was 113 % of control.

Source: PubChem BioAssay AID328 (DTP/NCI, 2004)
